# Reference: patent publication US12170135B2, “Systems and methods for evaluating query perturbations” (Recursion Pharmaceuticals, Inc., priority 2019, dated 2024)
# “Also recorded” adds a separate entry of the source.
# What was measured:
# [1] = system: NF2 deficiency in primary human cells; assay: Primary drug screens on NF2 loss-of-function model; assay type: cell-based; conditions: for rescue of NF2 loss-of-function phenotype: primary screen
# From the text: To identify novel and effective treatments for NF2, a loss-of-function model of the disease in a primary human cells and screened for molecules that rescue the disease-specific phenotype. […] These figures illustrate results from a series of primary drug screens to identify drug candidates for NF2 from a library of approximately 2000 small molecules. Scores for control perturbations (largely clustered in region 1102), test perturbations (largely clustered in region 1104), and query perturbations (largely clustered in region 1106), are shown in the plots. A small number of hits were algorithmically selected based on their effects in the assay and used for further screening.
# SMA patients = conditions: clinical trials; cited from earlier work
# SMN protein = conditions: cell-based assays and patients; cited from earlier work
# [2] = system: ATM deficiency in A549 cells
# From the text: (§1) Hits were algorithmically selected based on effect and screened with a higher replicate count in a tertiary screen. […] The length of the wider green bars, such as bar 910, represents changes in individual features of increasing or decreasing magnitude that best represent the ATM disease signature. The impact of each drug on individual features is overlaid in a second, narrower red shaded bar, such as bar 911. […] The order of the features was randomized between individual plots, and individual feature labels are omitted. […] Western blots probed for ATM and phosphorylated Chk2. […] The lower plots represent quantification of phosphorylated Chk2 from the Western Blot, n=3. H=Healthy; *denotes p<0.05, two-sided paired ratio t-test.
# (§2) Small molecule compounds were then tested on the A-T disease model using the screening methods described herein.
# patients with NF2 = conditions: Phase 2 study; cited from earlier work
# [3] = system: ATM deficiency in A549 cells; assay: Cell Painting phenotypic screen on the A-T disease model (on-target/off-target scores); conditions: ATM disease signature, FIG. 9B
# From the text: as §1, §2
# [4] = system: Chk2 phosphorylation in ATM knockdown A549 cells; assay: Western blot for phosphorylated Chk2 in siRNA transfected A549 cells treated with H2O2; assay type: cell-based; conditions: H2O2 treatment
# Description: Glucocorticoids are identified by the dashed red polygon 901. […] Western blots probed for ATM and phosphorylated Chk2.
# To further validate these compounds, disease-specific studies were performed. In response to DNA damage, ATM stimulates phosphorylation of a host of target proteins, including the checkpoint kinase Chk2. As expected, it was observed that siRNA-mediated knockdown of ATM mRNA in the A549 model cell-line suppressed phosphorylation of Chk2 after H2O2 treatment. Moreover, most glucocorticoids tested restored Chk2 phosphorylation to nearly 50% of control levels, with betamethasone and dexamethasone showing the least rescue (FIG. 9C).
# [5] = system: Chk2 phosphorylation in primary fibroblasts derived from a patient with A-T; assay: Western blot for phosphorylated Chk2 in primary fibroblasts from a patient with A-T; assay type: cell-based, human; conditions: H2O2
structure (smiles),measurement,setting,value
CNC(=O)c1cccc(-c2ccc3c(N4CCOC[C@@H]4C)nc(N4CCOC[C@@H]4C)nc3n2)c1 [AZD2014],side-effect profile in NF2 screen,[1],elevated side-effect profile compared to another highly selective mTOR inhibitor
same,rescue of NF2 loss-of-function phenotype,[1],strong rescue
"CCN(CC)CCNC(=O)c1c(C)[nH]c(/C=C2\C(=O)Nc3ccc(F)cc32)c1C [Sunitinib, sunitinib]",side-effect profile in NF2 screen,[1],minimal increase in side-effect profile
CCCC(CCC)C(=O)O [Valproic acid],clinical improvement in SMA,SMA patients,modest clinical improvement
same,SMN protein level,SMN protein,increases full length SMN protein
C[C@H]1C[C@H]2[C@@H]3CCC4=CC(=O)C=C[C@]4(C)[C@@]3(F)[C@@H](O)C[C@]2(C)[C@@]1(O)C(=O)CO [betamethasone],side effect profile (off-target score) in the screen,[2],greater side effects
CO[C@H]1C[C@@H]2CC[C@@H](C)[C@@](O)(O2)C(=O)C(=O)N2CCCC[C@H]2C(=O)O[C@H]([C@H](C)C[C@@H]2CC[C@@H](OCCO)[C@H](OC)C2)CC(=O)[C@H](C)/C=C(\C)[C@@H](O)[C@@H](OC)C(=O)[C@H](C)C[C@H](C)/C=C/C=C/C=C/1C [everolimus],clinical efficacy in NF2 / meningioma,patients with NF2,failed to demonstrate efficacy
same,rescue of NF2 loss-of-function phenotype,[1],minimal efficacy
CS(=O)(=O)CCNCc1ccc(-c2ccc3ncnc(Nc4ccc(OCc5cccc(F)c5)c(Cl)c4)c3c2)o1 [lapatinib],clinical efficacy in NF2 / meningioma,patients with NF2,antitumor activity in a subset of patients
same,tolerability in patients with NF2,patients with NF2,well tolerated
C[C@@H]1C[C@H]2[C@@H]3CCC4=CC(=O)C=C[C@]4(C)[C@@]3(Cl)[C@@H](O)C[C@]2(C)[C@@]1(O)C(=O)CCl [mometasone],impact on the twenty most prominent phenotypic disease features,[3],rescues a subset of features
same,rescue of Chk2 phosphorylation associated with ATM deficiency,[4],better rescue ATM deficiency
same,rescue of Chk2 phosphorylation associated with ATM deficiency,[4]; listed as Mometasone,superior P-Chk2 rescue
same,rescue of Chk2 phosphorylation in primary patient-derived cells,[5],dose-dependent rescue of Chk2 phosphorylation; also recorded: dose-dependent increase in Chk2 phosphorylation
